Source: the NIST ThermoML archive (doi:10.1021/je700699u)

Assay: cn = amount concentration of the nth substance listed, in mol/dm3
Conditions: 101 kPa, Liquid

N[C@@H](CC(=O)O)C(=O)[O-].[K+] [potassium (S)-2-amino-3-carboxypropanoate] + O
Conditions	mass density, 298.15 K [kg/m3]	mass density, 303.15 K [kg/m3]	mass density, 313.15 K [kg/m3]	mass density, 323.15 K [kg/m3]	mass density, 333.15 K [kg/m3]	viscosity, 298.15 K [mPa·s]	viscosity, 303.15 K [mPa·s]	viscosity, 313.15 K [mPa·s]	viscosity, 323.15 K [mPa·s]	viscosity, 333.15 K [mPa·s]
c1 = 0.255	1029	1027	1024	1020	1015	0.992	0.887	0.725	0.613	0.525
c1 = 0.47	1059	1057	1053	1049	1045	1.104	0.998	0.816	0.693	0.593
c1 = 0.708	1089	1087	1083	1079	1074	1.239	1.115	0.914	0.771	0.663
c1 = 0.979	1119	1117	1113	1109	1105	1.419	1.269	1.041	0.865	0.743
c1 = 1.208	1147	1145	1141	1137	1133	1.615	1.45	1.185	0.994	0.836
c1 = 1.449	1176	1173	1169	1166	1162	1.856	1.667	1.353	1.142	0.957

N[C@@H](CCC(=O)O)C(=O)[O-].[K+] [potassium (S)-2-amino-4-carboxybutanoate] + O
Conditions	mass density, 298.15 K [kg/m3]	mass density, 303.15 K [kg/m3]	mass density, 313.15 K [kg/m3]	mass density, 323.15 K [kg/m3]	mass density, 333.15 K [kg/m3]	viscosity, 298.15 K [mPa·s]	viscosity, 303.15 K [mPa·s]	viscosity, 313.15 K [mPa·s]	viscosity, 323.15 K [mPa·s]	viscosity, 333.15 K [mPa·s]
c1 = 0.248	1029	1027	1024	1019	1017	1.011	0.908	0.744	0.623	0.535
c1 = 0.493	1059	1057	1054	1049	1047	1.163	1.041	0.854	0.713	0.611
c1 = 0.733	1088	1086	1083	1078	1076	1.344	1.199	0.982	0.817	0.699
c1 = 1	1117	1116	1112	1107	1105	1.579	1.404	1.143	0.953	0.809
c1 = 1.24	1145	1143	1139	1134	1132	1.844	1.644	1.336	1.101	0.933
c1 = 1.469	1173	1171	1167	1162	1160	2.194	1.962	1.57	1.295	1.089

N=C(N)NCCC[C@H](N)C(=O)[O-].[K+] [potassium L-argininate] + O
Conditions	mass density, 298.15 K [kg/m3]	mass density, 303.15 K [kg/m3]	mass density, 313.15 K [kg/m3]	mass density, 323.15 K [kg/m3]	mass density, 333.15 K [kg/m3]	viscosity, 298.15 K [mPa·s]	viscosity, 303.15 K [mPa·s]	viscosity, 313.15 K [mPa·s]	viscosity, 323.15 K [mPa·s]	viscosity, 333.15 K [mPa·s]
c1 = 0.238	1021	1019	1016	1011	1007	1.026	0.917	0.75	0.63	0.539
c1 = 0.479	1043	1041	1037	1032	1027	1.215	1.098	0.886	0.738	0.632
c1 = 0.725	1064	1062	1058	1053	1048	1.431	1.276	1.035	0.856	0.723
c1 = 0.971	1087	1085	1080	1075	1069	1.882	1.553	1.244	1.019	0.848
